# Assay results: article PMC2984425, “Safety and pharmacokinetics of novel selective vascular endothelial growth factor receptor-2 inhibitor YN968D1 in patients with advanced malignancies” (BMC Cancer, 2010)
# Test system: patients with advanced solid tumors
# Assay: Treatment-related adverse events graded by NCI-CTC v3.0
# Assay type: in vivo, human
# Procedure: Medical records and laboratory tests were obtained during screening. Physical examination, routine laboratory evaluations, and performance status were assessed at baseline and at specified time points throughout the trial. AEs and concomitant medications were recorded at the end of each cycle. The safety evaluation period extended through 30 days from the last dose of study drug or through recovery to grade 1 or better from all acute toxicities associated with drug administration. Toxicity was evaluated and graded according to the NCI-CTC for Adverse Events, version 3.0.
smiles,measurement,setting,value
N#CC1(c2ccc(NC(=O)c3cccnc3NCc3ccncc3)cc2)CCCC1 [apatinib],"Hoarseness grade 1-2, No.",850 mg cohort,1
same,"Hyperbilirubinemia grade 1-2, %",850 mg cohort,23.1%
same,"Hyperbilirubinemia grade 1-2, No.",850 mg cohort,3
same,"Hypertension grade 1-2, %",850 mg cohort,69.2%
same,"Hypertension grade 1-2, No.",850 mg cohort,9
same,"Infection grade 1-2, %",850 mg cohort,23.1%
same,"Infection grade 1-2, No.",850 mg cohort,3
same,"Mucosal ulcers grade 1-2, %",850 mg cohort,15.4%
same,"Mucosal ulcers grade 1-2, No.",850 mg cohort,2
same,"Neutropenia grade 1-2, %",850 mg cohort,30.8%
same,"Neutropenia grade 1-2, No.",850 mg cohort,4
same,"Neutropenia grade 3-4, %",850 mg cohort,15.4%
same,"Neutropenia grade 3-4, No.",850 mg cohort,2
same,"Pain grade 1-2, %",850 mg cohort,23.1%
same,"Pain grade 1-2, No.",850 mg cohort,3
same,"Proteinuria grade 1-2, %",850 mg cohort,38.5%
same,"Proteinuria grade 1-2, No.",850 mg cohort,5
same,"Proteinuria grade 3-4, %",850 mg cohort,7.7%
same,"Proteinuria grade 3-4, No.",850 mg cohort,1
same,"Rash grade 1-2, %",850 mg cohort,7.7%
same,"Rash grade 1-2, No.",850 mg cohort,1
same,"Thrombocytopenia grade 1-2, %",850 mg cohort,15.4%
same,"Thrombocytopenia grade 1-2, No.",850 mg cohort,2
same,"Thrombocytopenia grade 3-4, %",850 mg cohort,7.7%
same,"Thrombocytopenia grade 3-4, No.",850 mg cohort,1
same,"Transaminase Increased grade 1-2, %",850 mg cohort,23.1%
same,"Transaminase Increased grade 1-2, No.",850 mg cohort,3
same,"Transaminase Increased grade 3-4, %",850 mg cohort,15.4%
same,"Transaminase Increased grade 3-4, No.",850 mg cohort,2
same,"Vomiting grade 3-4, %",850 mg cohort,7.7%
same,"Vomiting grade 3-4, No.",850 mg cohort,1
same,"Anemia grade 3-4, %",1000 mg cohort,33.3%
same,"Anemia grade 3-4, No.",1000 mg cohort,1
same,"Anorexia grade 1-2, %",1000 mg cohort,33.3%
same,"Anorexia grade 1-2, No.",1000 mg cohort,1
same,"Fatigue grade 1-2, %",1000 mg cohort,33.3%
same,"Fatigue grade 1-2, No.",1000 mg cohort,1
same,"Fatigue grade 3-4, %",1000 mg cohort,33.3%
same,"Fatigue grade 3-4, No.",1000 mg cohort,1
same,"Hand-Food Syndrome grade 3-4, %",1000 mg cohort,33.3%
same,"Hand-Food Syndrome grade 3-4, No.",1000 mg cohort,1
same,"Hypertension grade 1-2, %",1000 mg cohort,66.7%
same,"Hypertension grade 1-2, No.",1000 mg cohort,2
same,"Hypertension grade 3-4, %",1000 mg cohort,33.3%
same,"Hypertension grade 3-4, No.",1000 mg cohort,1
same,"Infection grade 1-2, %",1000 mg cohort,33.3%
same,"Infection grade 1-2, No.",1000 mg cohort,1
same,"Mucosal ulcers grade 1-2, %",1000 mg cohort,66.7%
same,"Mucosal ulcers grade 1-2, No.",1000 mg cohort,2
same,"Neutropenia grade 1-2, %",1000 mg cohort,100%
same,"Neutropenia grade 1-2, No.",1000 mg cohort,3
same,"Pain grade 1-2, %",1000 mg cohort,33.3%
same,"Pain grade 1-2, No.",1000 mg cohort,1
same,"Thrombocytopenia grade 1-2, %",1000 mg cohort,33.3%
same,"Thrombocytopenia grade 1-2, No.",1000 mg cohort,1
same,"Transaminase Increased grade 1-2, %",1000 mg cohort,33.3%
same,"Transaminase Increased grade 1-2, No.",1000 mg cohort,1
same,"Transaminase Increased grade 3-4, %",1000 mg cohort,33.3%
same,"Transaminase Increased grade 3-4, No.",1000 mg cohort,1
same,"Albinism grade 1-2, %","Total, all cohorts",2.2%
same,"Albinism grade 1-2, No.","Total, all cohorts",1
same,"Anemia grade 1-2, %","Total, all cohorts",15.2%
same,"Anemia grade 1-2, No.","Total, all cohorts",7
same,"Anemia grade 3-4, %","Total, all cohorts",4.3%
same,"Anemia grade 3-4, No.","Total, all cohorts",2
same,"Anorexia grade 1-2, %","Total, all cohorts",15.2%
same,"Anorexia grade 1-2, No.","Total, all cohorts",7
same,"Diarrhea grade 1-2, %","Total, all cohorts",13%
same,"Diarrhea grade 1-2, No.","Total, all cohorts",6
same,"Dyspnea grade 1-2, %","Total, all cohorts",2.2%
same,"Dyspnea grade 1-2, No.","Total, all cohorts",1
same,"Fatigue grade 1-2, %","Total, all cohorts",21.7%
same,"Fatigue grade 1-2, No.","Total, all cohorts",10
same,"Fatigue grade 3-4, %","Total, all cohorts",4.3%
same,"Fatigue grade 3-4, No.","Total, all cohorts",2
same,"Hand-Food Syndrome grade 1-2, %","Total, all cohorts",32.6%
same,"Hand-Food Syndrome grade 1-2, No.","Total, all cohorts",15
same,"Hand-Food Syndrome grade 3-4, %","Total, all cohorts",13%
same,"Hand-Food Syndrome grade 3-4, No.","Total, all cohorts",6
same,"Hemorrhage grade 1-2, %","Total, all cohorts",21.7%
same,"Hemorrhage grade 1-2, No.","Total, all cohorts",10
same,"Hemorrhage grade 3-4, %","Total, all cohorts",2.2%
same,"Hemorrhage grade 3-4, No.","Total, all cohorts",1
same,"Hoarseness grade 1-2, %","Total, all cohorts",8.7%
same,"Hoarseness grade 1-2, No.","Total, all cohorts",4
same,"Hyperbilirubinemia grade 1-2, %","Total, all cohorts",6.5%
same,"Hyperbilirubinemia grade 1-2, No.","Total, all cohorts",3
same,"Hyperbilirubinemia grade 3-4, %","Total, all cohorts",2.2%
same,"Hyperbilirubinemia grade 3-4, No.","Total, all cohorts",1
same,"Hypertension grade 1-2, %","Total, all cohorts",63%
same,"Hypertension grade 1-2, No.","Total, all cohorts",29
same,"Hypertension grade 3-4, %","Total, all cohorts",6.5%
same,"Hypertension grade 3-4, No.","Total, all cohorts",3
same,"Infection grade 1-2, %","Total, all cohorts",21.7%
same,"Infection grade 1-2, No.","Total, all cohorts",10
same,"Mucosal ulcers grade 1-2, %","Total, all cohorts",17.4%
same,"Mucosal ulcers grade 1-2, No.","Total, all cohorts",8
same,"Mucosal ulcers grade 3-4, %","Total, all cohorts",4.3%
same,"Mucosal ulcers grade 3-4, No.","Total, all cohorts",2
same,"Neutropenia grade 1-2, %","Total, all cohorts",34.8%
same,"Neutropenia grade 1-2, No.","Total, all cohorts",16
same,"Neutropenia grade 3-4, %","Total, all cohorts",8.7%
same,"Neutropenia grade 3-4, No.","Total, all cohorts",4
same,"Pain grade 1-2, %","Total, all cohorts",26.1%
same,"Pain grade 1-2, No.","Total, all cohorts",12
same,"Pain grade 3-4, %","Total, all cohorts",8.7%
same,"Pain grade 3-4, No.","Total, all cohorts",4
same,"Proteinuria grade 1-2, %","Total, all cohorts",34.8%
same,"Proteinuria grade 1-2, No.","Total, all cohorts",16
same,"Proteinuria grade 3-4, %","Total, all cohorts",13%
same,"Proteinuria grade 3-4, No.","Total, all cohorts",6
same,"Rash grade 1-2, %","Total, all cohorts",6.5%
same,"Rash grade 1-2, No.","Total, all cohorts",3
same,"Thrombocytopenia grade 1-2, %","Total, all cohorts",26.1%
same,"Thrombocytopenia grade 1-2, No.","Total, all cohorts",12
same,"Thrombocytopenia grade 3-4, %","Total, all cohorts",2.2%
same,"Thrombocytopenia grade 3-4, No.","Total, all cohorts",1
same,"Transaminase Increased grade 1-2, %","Total, all cohorts",28.3%
same,"Transaminase Increased grade 1-2, No.","Total, all cohorts",13
same,"Transaminase Increased grade 3-4, %","Total, all cohorts",8.7%
same,"Transaminase Increased grade 3-4, No.","Total, all cohorts",4
same,"Vomiting grade 1-2, %","Total, all cohorts",8.7%
same,"Vomiting grade 1-2, No.","Total, all cohorts",4
same,"Vomiting grade 3-4, %","Total, all cohorts",2.2%
same,"Vomiting grade 3-4, No.","Total, all cohorts",1
same,"hypertension, drug-related AE, all grades","all patients, N = 46",69.5%
same,"proteinuria, drug-related AE, all grades","all patients, N = 46",47.8%
same,"bleeding, patients","all patients, most at tumor sites",23.9%
same,patients who developed HFS that progressed to grade 3,in vivo,About 10%
